Measurements from US20230203023A1, “SALT AND CRYSTAL FORMS OF GLP-1R AGONISTS AND USES THEREOF” (QILU REGOR THERAPEUTICS INC., priority 2020, published 2023).
Counter-ions that a name gives are not always drawn.

Experiment: Kinetic solubility test in water and bio-relevant media (SGF, FaSSIF, FeSSIF)
Type: physicochemical
Settings: for S: solubility: 37° C.; for Purity (%), area percentage of API: for reference only (suspensions); for FC: form change: residual solids by XRPD; for pH: supernatant
Procedure: (§1) Weigh 100 mg of sodium chloride and 50 mg of Triton X-100 into a 50-mL volumetric flask. Add appropriate volume of purified water and sonicate until all solids are completely dissolved. Add about 68 μL of 12 M HCl and sufficient purified water closely to the target volume and adjust to pH 1.8. Dilute to volume with purified water, mix well and check the pH with a pH meter.
as §1, with “170” for “100”, “phosphate monobasic, 21” for “chloride and 50”, “sodium hydroxide and 310 mg of sodium chloride, 110 mg of SIF powder” for “Triton X-100”, “Add” for “Add about 68 μL of 12 M HCl and”, “6.5.” for “1.8.”
Weigh 0.41 mL of glacial acetic acid, 202 mg of sodium hydroxide and 594 mg of sodium chloride, 560 mg of SIF powder into a 50-mL volumetric flask. Add appropriate volume of purified water to dissolve the solids. Then add sufficient purified water closely to the target volume and adjust to pH 5.0. Dilute to volume with purified water, mix well and check the pH with a pH meter.
Kinetic solubility was evaluated in water and three bio-relevant media (SGF, FaSSIF and FeSSIF) for 1/4/24 hours. 3-4 mg of solids were suspended in 3 mL each medium (solid loading: 1 mg/mL, calculated using freeform) to get a suspension, followed by rolling (25 rpm) at 37° C. for 1/4/24 hours. At each time point, ˜1.0 mL of suspension was sampled out for centrifugation (12000 rpm, 2 min) and filtration through 0.45 μm PTFE membrane to obtain supernatant for HPLC and pH tests, the residual solids were analyzed by XRPD.
Kinetic solubility was evaluated for 1:1 Compound II Citrate Salt (Form A), 1:1 Compound II Tris Salt (Form B), and freeform of Compound II in water and three bio-relevant media (SGF, FaSSIF and FeSSIF) for 1/4/24 hours. 3-4 mg of solids were suspended in 3 mL each medium (solid loading:
1 mg/mL, calculated using freeform) to get a suspension, followed by rolling (25 rpm) at 37° C. for 1/4/24 hours. At each time point, ˜1.0 mL of suspension was sampled out for centrifugation (12000 rpm, 2 min) and filtration through 0.45 μm PTFE membrane to obtain supernatant for HPLC and pH tests, the residual solids were analyzed by XRPD. […] The purity results were for reference only since the samples were all suspensions.

S: solubility (FaSSIF, 1 hour): 100 µg/mL | Purity (%), area percentage of API (FaSSIF, 1 hour): 94.86% | S: solubility (FaSSIF, 4 hours): 20 µg/mL | Purity (%), area percentage of API (FaSSIF, 4 hours): 76.06% | S: solubility (FaSSIF, 24 hours): 9 µg/mL | Purity (%), area percentage of API (FaSSIF, 24 hours): 61.96% | S: solubility (FeSSIF, 1 hour): 200 µg/mL | Purity (%), area percentage of API (FeSSIF, 1 hour): 98.94% | S: solubility (FeSSIF, 4 hours): 300 µg/mL | Purity (%), area percentage of API (FeSSIF, 4 hours): 95.25% | S: solubility (FeSSIF, 24 hours): 90 µg/mL | Purity (%), area percentage of API (FeSSIF, 24 hours): 79.88% | S: solubility (H2O, 1 hour): 20 µg/mL | Purity (%), area percentage of API (H2O, 1 hour): 100.00% | S: solubility (H2O, 4 hours): 20 µg/mL | Purity (%), area percentage of API (H2O, 4 hours): 91.26% | S: solubility (H2O, 24 hours): 50 µg/mL | Purity (%), area percentage of API (H2O, 24 hours): 86.05% | S: solubility (SGF, 1 hour): 500 µg/mL | Purity (%), area percentage of API (SGF, 1 hour): 96.79% | S: solubility (SGF, 4 hours): 80 µg/mL | Purity (%), area percentage of API (SGF, 4 hours): 91.83% | S: solubility (SGF, 24 hours): 60 µg/mL | Purity (%), area percentage of API (SGF, 24 hours): 90.59% | FC: form change (FaSSIF, 1 hour): No | FC: form change (FaSSIF, 4 hours): No | FC: form change (FaSSIF, 24 hours): Yes | FC: form change (FeSSIF, 1 hour): No | FC: form change (FeSSIF, 24 hours): Yes | FC: form change (H2O, 1 hour): No | FC: form change (H2O, 4 hours): No | FC: form change (H2O, 24 hours): No | FC: form change (SGF, 1 hour): Yes | FC: form change (SGF, 4 hours): Yes | FC: form change (SGF, 24 hours): Yes | pH (FaSSIF, 1 hour): 6.3 | pH (FaSSIF, 4 hours): 6.3 | pH (FaSSIF, 24 hours): 6.0 | pH (FeSSIF, 1 hour): 5.0 | pH (FeSSIF, 4 hours): 5.0 | pH (FeSSIF, 24 hours): 4.9 | pH (H2O, 1 hour): 4.8 | pH (H2O, 4 hours): 4.2 | pH (H2O, 24 hours): 3.4 | pH (SGF, 1 hour): 1.9 | pH (SGF, 4 hours): 1.9 | pH (SGF, 24 hours): 1.9 | Solubility in SGF, FaSSIF and FeSSIF compared with freeform (within 1 hour): higher than that of freeform
SMILES: N#Cc1ccc(COc2cccc(C3=CCN(Cc4nc5ccc(C(=O)O)cc5n4C[C@@H]4CCO4)CC3)n2)c(F)c1 [Citrate salt Form A, (S)-2-((6-((4-cyano-2-fluorobenzyl)oxy)-3′,6′-dihydro-[2,4′-bipyridin]-1′(2′H)-yl)methyl)-1-(oxetan-2-ylmethyl)-1H-benzo[d]imidazole-6-carboxylic acid]
